Laboratory results: ChEMBL document CHEMBL3102795, “Discovery of 1-oxa-4,9-diazaspiro[5.5]undecane-based trisubstituted urea derivatives as highly potent soluble epoxide hydrolase inhibitors and orally active drug candidates for treating of chronic kidney diseases” (Bioorg Med Chem Lett, 2014)
Converted amounts (≈) assume the structure as drawn. The source made the active and inactive calls. The calls are words filed in the database; no cut-off is given here.

Columns and labels:
[1] = Solubility of the compound in simulated gastric fluid compliant with Japanese pharmacopeia; assay type: ADME
[2] = Solubility of the compound in simulated intestinal fluid compliant with Japanese pharmacopeia; assay type: ADME
[3] = molecular target: T1, Bifunctional epoxide hydrolase 2 (Homo sapiens, UniProt P34913); test: Inhibition of human recombinant sEH expressed in baculovirus infected insect Sf9 cells using cyano(6-methoxynaphthalen-2-yl)methyl trans-[(3-phenyloxiran-2-yl)methyl] carbonate as substrate preincubated for 30 mins followed by substrate addition measured after 20 to 45 mins by fluorescence assay
T1 sequence (P34913 whole entry): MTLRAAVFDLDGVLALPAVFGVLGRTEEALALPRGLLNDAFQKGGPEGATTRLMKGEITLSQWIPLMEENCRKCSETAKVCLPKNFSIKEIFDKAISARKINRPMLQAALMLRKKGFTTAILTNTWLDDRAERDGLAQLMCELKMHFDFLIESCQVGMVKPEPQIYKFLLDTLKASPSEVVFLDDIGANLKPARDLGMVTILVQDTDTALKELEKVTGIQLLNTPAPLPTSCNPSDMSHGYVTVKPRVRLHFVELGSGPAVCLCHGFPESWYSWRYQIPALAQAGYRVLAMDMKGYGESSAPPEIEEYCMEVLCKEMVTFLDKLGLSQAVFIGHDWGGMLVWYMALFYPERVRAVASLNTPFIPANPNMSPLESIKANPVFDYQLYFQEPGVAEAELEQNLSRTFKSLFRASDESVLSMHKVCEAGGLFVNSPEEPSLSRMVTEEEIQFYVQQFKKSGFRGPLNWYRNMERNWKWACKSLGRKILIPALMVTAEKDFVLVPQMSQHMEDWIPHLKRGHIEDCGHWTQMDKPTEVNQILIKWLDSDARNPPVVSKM

[4] = system: Liver microsome; test: Metabolic stability in human liver microsomes measured per mg of protein; assay type: ADME
[5] = molecular target: T2, Bifunctional epoxide hydrolase 2 (Rattus norvegicus, UniProt P80299); test: Inhibition of rat recombinant sEH expressed in baculovirus infected insect Sf9 cells using cyano(6-methoxynaphthalen-2-yl)methyl trans-[(3-phenyloxiran-2-yl)methyl] carbonate as substrate preincubated for 30 mins followed by substrate addition measured after 20 to 45 mins by fluorescence assay
T2 sequence (P80299 whole entry): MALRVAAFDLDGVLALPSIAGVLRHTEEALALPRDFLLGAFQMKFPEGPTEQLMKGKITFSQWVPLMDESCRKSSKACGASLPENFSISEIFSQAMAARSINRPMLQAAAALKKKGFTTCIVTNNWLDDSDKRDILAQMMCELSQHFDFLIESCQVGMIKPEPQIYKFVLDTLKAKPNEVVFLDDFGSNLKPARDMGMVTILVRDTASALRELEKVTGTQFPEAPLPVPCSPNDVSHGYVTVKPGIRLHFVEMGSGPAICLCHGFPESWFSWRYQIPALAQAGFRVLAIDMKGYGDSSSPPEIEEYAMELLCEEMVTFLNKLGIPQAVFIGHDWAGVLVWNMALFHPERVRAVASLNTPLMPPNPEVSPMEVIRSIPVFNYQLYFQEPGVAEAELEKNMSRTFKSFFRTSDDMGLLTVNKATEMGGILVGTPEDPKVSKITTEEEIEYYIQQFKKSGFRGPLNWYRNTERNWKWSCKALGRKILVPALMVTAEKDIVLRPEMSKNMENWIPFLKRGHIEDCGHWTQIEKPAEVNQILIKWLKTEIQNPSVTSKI

[6] = Oral bioavailability in rat at 1 mg/kg; assay type: ADME, organism-based; conditions: in vivo
[7] = Tmax in rat at 1 mg/kg, po; assay type: ADME, organism-based; set-up: dose 1 mg/kg, route oral; conditions: in vivo
[8] = AUC (0 to infinity) in rat at 1 mg/kg, po; assay type: ADME, organism-based; set-up: time infinity, dose 1 mg/kg, route oral; conditions: plasma
[9] = Cmax in rat at 1 mg/kg, po; assay type: ADME, organism-based; set-up: dose 1 mg/kg, route oral; conditions: in vivo
[10] = Total clearance in rat at 0.2 mg/kg, iv; assay type: ADME, organism-based; set-up: dose 0.2 mg/kg, route intravenous; conditions: in vivo
[11] = Volume of distribution at steady state in rat at 0.2 mg/kg, iv; assay type: ADME, organism-based; set-up: dose 0.2 mg/kg, route intravenous; conditions: in vivo, read-out: Vdss
[12] = Half life in rat at 0.2 mg/kg, iv; assay type: ADME, organism-based; set-up: dose 0.2 mg/kg, route intravenous; conditions: in vivo
[13] = AUC (0 to infinity) in rat at 0.2 mg/kg, iv; assay type: ADME, organism-based; set-up: time infinity, dose 0.2 mg/kg, route intravenous; conditions: plasma
[14] = Drug uptake in rat at 0.2 mg/kg, iv at 5 mins; assay type: ADME, organism-based; set-up: dose 0.2 mg/kg, route intravenous; conditions: in vivo, read-out: Drug uptake
[15] = system: Rattus norvegicus; test: Reduction of serum creatinine level in rat anti-glomerular basement membrane glomerulonephritis model at 30 mg/kg, po qd administered for 3 weeks; assay type: functional, organism-based; set-up: dose 30 mg/kg

| SMILES | solubility [1] [µg/mL] | solubility [2] [µg/mL] | IC50 [3] [nM] | CLint [4] [µL/min/mg] | IC50 [5] [nM] | bioavailability [6] [%] | Tmax [7] [h] | AUC(0-inf) [8] [ng·h/mL] | Cmax [9] [ng/mL] | clearance [10] [mL/min/kg] | Vd [11] [L/kg] | half-life [12] [h] | AUC(0-inf) [13] [ng·h/mL] | concentration at 5 min [14] [ng/mL] | Activity [15] |
| --- | --- | --- | --- | --- | --- | --- | --- | --- | --- | --- | --- | --- | --- | --- | --- |
| O=C(Nc1ccc(C(F)(F)F)cc1)N1CCOC2(CCN(C(=O)c3ccco3)CC2)C1 | 75 (≈ 171 µM) | 75 (≈ 171 µM) | 5.4 | – | – | – | – | – | – | – | – | – | – | – | – |
| O=C(Nc1ccc(C(F)(F)F)cc1)N1CCOC2(CCN(C(=O)c3ccccn3)CC2)C1 | 85 (≈ 190 µM) | 83 (≈ 185 µM) | 4.2 | – | – | – | – | – | – | – | – | – | – | – | – |
| O=C(Nc1ccc(OC(F)(F)F)cc1)N1CCC2(CC1)CN(C(=O)c1c(F)cccc1F)CCO2 | 52 (≈ 104 µM) | 46 (≈ 92.1 µM) | 5.4 | – | – | – | – | – | – | – | – | – | – | – | – |
| O=C(CC1CC1)N1CCC2(CC1)CN(C(=O)Nc1ccc(C(F)(F)F)cc1)CCO2 | 79 (≈ 186 µM) | 79 (≈ 186 µM) | 2.1 | 74 | 31.4 | – | – | – | – | – | – | – | – | – | – |
| N#Cc1ccc(C(=O)N2CCC3(CC2)CN(C(=O)Nc2ccc(C(F)(F)F)cc2)CCO3)cc1 | 85 (≈ 180 µM) | 82 (≈ 174 µM) | 1.9 | 3 | 15 | – | – | – | – | – | – | – | – | – | – |
| Cc1cc(C(=O)N2CCC3(CC2)CN(C(=O)Nc2ccc(OC(F)(F)F)cc2)CCO3)no1 | 84 (≈ 179 µM) | 83 (≈ 177 µM) | 1.4 | 47 | 25.7 | 24.1 | 2 | 123 | 9.58 | 36.9 | 3.31 | 1.17 | 90.2 | 77.7 | – |
| O=C(Nc1ccc(C(F)(F)F)cc1)N1CCOC2(CCN(C(=O)c3cccc(Cl)c3)CC2)C1 | 26 (≈ 54 µM) | 21 (≈ 43.6 µM) | 1.2 | 100 | 36.9 | – | – | – | – | – | – | – | – | – | – |
| O=C(Nc1ccc(C(F)(F)F)cc1)N1CCOC2(CCN(C(=O)c3c(F)cccc3F)CC2)C1 | 43 (≈ 88.9 µM) | 38 (≈ 78.6 µM) | 1.3 | 93 | 19.1 | – | – | – | – | – | – | – | – | – | – |
| CC(C)(C)C(=O)N1CCC2(CC1)CN(C(=O)Nc1ccc(C(F)(F)F)cc1)CCO2 | 76 (≈ 178 µM) | 73 (≈ 171 µM) | 2.9 | 98 | 12 | – | – | – | – | – | – | – | – | – | – |
| O=C(Nc1ccc(OC(F)(F)F)cc1)N1CCC2(CCCN(C(=O)c3c(F)cccc3F)C2)CC1 | – | – | 2.96 | – | – | – | – | – | – | – | – | – | – | – | – |
| O=C(Nc1ccc(C(F)(F)F)cc1)N1CCOC2(CCN(C(=O)c3ccccc3Cl)CC2)C1 | 10 (≈ 20.8 µM) | 12 (≈ 24.9 µM) | 1.4 | 48 | 13 | – | – | – | – | – | – | – | – | – | – |
| O=C1Cc2cc(C(=O)N3CCC4(CC3)CN(C(=O)Nc3ccc(OC(F)(F)F)cc3)CCO4)ccc2N1 | 96 (≈ 185 µM) | 93 (≈ 179 µM) | 1.8 | 29 | > 20 | – | – | – | – | – | – | – | – | – | – |
| O=C(Nc1ccc(C(F)(F)F)cc1)N1CCOC2(CCN(C(=O)c3ccccc3)CC2)C1 | 62 (≈ 139 µM) | 63 (≈ 141 µM) | 3.2 | – | – | – | – | – | – | – | – | – | – | – | – |
| O=C(Nc1ccc(OC(F)(F)F)cc1)N1CCOC2(CCN(C(=O)c3c[nH]nc3C3CC3)CC2)C1 | 93 (≈ 188 µM) | 92 (≈ 186 µM) | 1.1 | 35 | 96.9 | – | – | – | – | – | – | – | – | – | – |

More lines, main results first:

| solubility [1] [µg/mL] | solubility [2] [µg/mL] | IC50 [3] [nM] | CLint [4] [µL/min/mg] | IC50 [5] [nM] | bioavailability [6] [%] | Tmax [7] [h] | AUC(0-inf) [8] [ng·h/mL] | Cmax [9] [ng/mL] | clearance [10] [mL/min/kg] | Vd [11] [L/kg] | half-life [12] [h] | AUC(0-inf) [13] [ng·h/mL] | concentration at 5 min [14] [ng/mL] | SMILES | Activity [15] |
| --- | --- | --- | --- | --- | --- | --- | --- | --- | --- | --- | --- | --- | --- | --- | --- |
| 29 (≈ 60.2 µM) | 23 (≈ 47.7 µM) | 1 | 21 | 24.9 | – | – | – | – | – | – | – | – | – | O=C(Nc1ccc(C(F)(F)F)cc1)N1CCOC2(CCN(C(=O)c3ccc(Cl)cc3)CC2)C1 | – |
| 90 (≈ 180 µM) | 89 (≈ 178 µM) | 0.6 | 62 | 11.6 | – | – | – | – | – | – | – | – | – | O=C(Nc1ccc(OC(F)(F)F)cc1)N1CCOC2(CCN(C(=O)c3cc(Cl)ccn3)CC2)C1 | – |
| 92 (≈ 192 µM) | 90 (≈ 188 µM) | 0.7 | 132 | > 20 | – | – | – | – | – | – | – | – | – | O=C(Cc1ccccn1)N1CCC2(CC1)CN(C(=O)Nc1ccc(OC(F)(F)F)cc1)CCO2 | – |
| 86 (≈ 174 µM) | 89 (≈ 180 µM) | 0.6 | 87 | 22.2 | – | – | – | – | – | – | – | – | – | O=C(Nc1ccc(OC(F)(F)F)cc1)N1CCOC2(CCN(C(=O)c3cnoc3C3CC3)CC2)C1 | – |
| 66 (≈ 130 µM) | 59 (≈ 116 µM) | 0.5 | 461 | 71.6 | – | – | – | – | – | – | – | – | – | COc1ccccc1CC(=O)N1CCC2(CC1)CN(C(=O)Nc1ccc(OC(F)(F)F)cc1)CCO2 | – |
| 44 (≈ 88.1 µM) | 39 (≈ 78.1 µM) | 0.7 | 86 | 18.5 | – | – | – | – | – | – | – | – | – | O=C(Nc1ccc(OC(F)(F)F)cc1)N1CCOC2(CCN(C(=O)c3c(F)cccc3F)CC2)C1 | – |
| 69 (≈ 147 µM) | 63 (≈ 134 µM) | 0.6 | 357 | 14.5 | – | – | – | – | – | – | – | – | – | O=C(Nc1ccc(OC(F)(F)F)cc1)N1CCOC2(CCN(C(=O)C3CCCCC3)CC2)C1 | – |
| 71 (≈ 147 µM) | 62 (≈ 129 µM) | 1.1 | 30 | 9.3 | 35.4 | 1 | 306 | 20.4 | 19.3 | 3.56 | 2.63 | 173 | 71 | O=C(Nc1ccc(OC(F)(F)F)cc1)N1CCOC2(CCN(C(=O)c3ccccc3F)CC2)C1 | Active |
| 9 (≈ 18.1 µM) | 9 (≈ 18.1 µM) | 0.125 | 602 | 3.3 | – | – | – | – | – | – | – | – | – | O=C(Nc1ccc(OC(F)(F)F)cc1)N1CCCC2(CCN(C(=O)c3c(F)cccc3F)CC2)C1 | – |
| 91 (≈ 190 µM) | 92 (≈ 192 µM) | 0.9 | 12 | 8.8 | 11.1 | 1 | 61.3 | 8.64 | 30.1 | 1.82 | 1.53 | 111 | 134 | Cc1cnc(C(=O)N2CCC3(CC2)CN(C(=O)Nc2ccc(OC(F)(F)F)cc2)CCO3)cn1 | – |
| 92 (≈ 182 µM) | 93 (≈ 184 µM) | 0.8 | 39 | 6.8 | – | – | – | – | – | – | – | – | – | CC(=O)Nc1ccccc1C(=O)N1CCC2(CC1)CN(C(=O)Nc1ccc(C(F)(F)F)cc1)CCO2 | – |
| 37 (≈ 73.5 µM) | 33 (≈ 65.5 µM) | 0.4 | 228 | 28 | – | – | – | – | – | – | – | – | – | O=C(Nc1ccc(OC(F)(F)F)cc1)N1CCOC2(CCN(C(=O)C3(c4ccccc4)CC3)CC2)C1 | – |
